From ChEMBL document CHEMBL1759974, “Discovery of triazine-benzimidazoles as selective inhibitors of mTOR” (Bioorg Med Chem Lett, 2011)
≈ marks a conversion by molar mass, not a printed value. One block for each compound: values may come before it. Calls of active or inactive are those of the source. The calls are words filed in the database; no cut-off is given here.

Columns and labels:
[1] = biological target: T1, Serine/threonine-protein kinase mTOR (Homo sapiens, UniProt P42345)
[2] = Half life in Sprague-Dawley rat at 5 mg/kg, po; format: ADME, organism-based; set-up: dose 5 mg/kg, route oral; conditions: in vivo
[3] = biological target: Phosphatidylinositol 4,5-bisphosphate 3-kinase catalytic subunit alpha isoform (Homo sapiens, UniProt P42336)
[4] = biological target: Phosphatidylinositol 4,5-bisphosphate 3-kinase catalytic subunit beta isoform (Homo sapiens, UniProt P42338)
Rattus norvegicus [5] = assay: AUC in Sprague-Dawley rat at 5 mg/kg, po; format: ADME, organism-based, Plasma; set-up: dose 5 mg/kg, route oral; conditions: in vivo
[6] = biological target: Phosphatidylinositol 4,5-bisphosphate 3-kinase catalytic subunit gamma isoform (Homo sapiens, UniProt P48736)
[7] = biological target: T2, Phosphatidylinositol 4,5-bisphosphate 3-kinase catalytic subunit delta isoform (Homo sapiens, UniProt O00329)
T2 sequence (O00329 whole entry): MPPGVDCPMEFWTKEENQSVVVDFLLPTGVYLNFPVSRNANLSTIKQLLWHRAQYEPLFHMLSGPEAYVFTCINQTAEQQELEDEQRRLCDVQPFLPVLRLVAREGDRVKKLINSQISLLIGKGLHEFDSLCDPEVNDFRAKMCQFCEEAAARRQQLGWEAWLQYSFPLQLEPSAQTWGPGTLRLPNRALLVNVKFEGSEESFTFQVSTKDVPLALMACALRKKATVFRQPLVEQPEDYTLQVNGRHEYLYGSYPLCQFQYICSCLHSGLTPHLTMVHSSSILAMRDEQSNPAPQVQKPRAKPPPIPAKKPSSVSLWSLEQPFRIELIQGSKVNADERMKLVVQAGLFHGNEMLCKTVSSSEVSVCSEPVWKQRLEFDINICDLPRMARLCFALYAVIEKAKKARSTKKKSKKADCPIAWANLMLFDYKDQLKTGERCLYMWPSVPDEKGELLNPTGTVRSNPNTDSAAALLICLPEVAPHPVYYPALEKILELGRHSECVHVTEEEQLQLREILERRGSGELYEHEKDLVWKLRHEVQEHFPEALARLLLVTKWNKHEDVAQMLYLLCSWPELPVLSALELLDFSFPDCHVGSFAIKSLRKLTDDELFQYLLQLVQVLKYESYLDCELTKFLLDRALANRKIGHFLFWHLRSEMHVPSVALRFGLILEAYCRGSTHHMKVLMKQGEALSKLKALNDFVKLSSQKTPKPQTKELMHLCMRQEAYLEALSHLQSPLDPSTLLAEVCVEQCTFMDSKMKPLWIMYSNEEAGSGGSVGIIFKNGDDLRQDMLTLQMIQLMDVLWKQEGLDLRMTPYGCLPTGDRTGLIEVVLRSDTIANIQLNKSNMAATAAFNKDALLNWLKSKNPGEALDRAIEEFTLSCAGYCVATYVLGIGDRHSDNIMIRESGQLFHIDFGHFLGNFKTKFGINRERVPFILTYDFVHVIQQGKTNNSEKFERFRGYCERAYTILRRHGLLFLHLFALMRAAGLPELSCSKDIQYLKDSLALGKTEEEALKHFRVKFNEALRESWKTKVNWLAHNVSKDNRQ

[8] = biological target: T1, Serine/threonine-protein kinase mTOR; remark: listed apart in the source
[9] = biological target: T1, Serine/threonine-protein kinase mTOR; remark: listed apart in the source
Description: Inhibition of mTOR in human U-87 cells assessed as inhibition of phosphorylation of AKT at S473

[10] = biological target: TGF-beta receptor type-2 (Homo sapiens) (UniProt P37173); assay: Inhibition of TGFBR2 assessed as inhibition of TGFbeta induced SMAD phosphorylation at 10 uM relative to control
HCC1954 = assay: Antiproliferative activity against human HCC1954 harboring PI3K/p53 gene mutation/amplification at 1 uM after 72 hrs by Ambit assay in presence of 10% serum; format: functional, cell-based; conditions: HCC1954, 72 h
MDA-MB-468 = assay: Antiproliferative activity against human MDA-MB-468 harboring PTEN/EGFR/p53 gene mutation/amplification at 1 uM after 72 hrs by Ambit assay in presence of 10% serum; format: functional, cell-based; conditions: MDA-MB-468, 72 h
NCI-H2009 = assay: Antiproliferative activity against human NCI-H2009 harboring KRAS/RB/p53 gene mutation/amplification at 1 uM after 72 hrs by Ambit assay in presence of 10% serum; format: functional, cell-based; conditions: NCI-H2009, 72 h
COLO-829 = assay: Antiproliferative activity against human COLO829 harboring BRAF/PTEN gene mutation/amplification at 1 uM after 72 hrs by Ambit assay in presence of 10% serum; format: functional, cell-based; conditions: COLO-829, 72 h
UACC-893 = assay: Antiproliferative activity against human UACC-893 cells harboring HER2/PI3K/p53 mutant gene at 1 uM after 72 hrs by Ambit assay in presence of 10% serum; format: functional, cell-based; conditions: UACC-893, 72 h
CAL-51 = assay: Antiproliferative activity against human CAL51 harboring PI3K/PTEN gene mutation/amplification at 1 uM after 72 hrs by Ambit assay in presence of 10% serum; format: functional, cell-based; conditions: CAL-51, 72 h
A549 = assay: Antiproliferative activity against human A549 cells harboring KRAS/LKB1 gene mutation/amplification at 1 uM after 72 hrs by Ambit assay in presence of 10% serum; format: functional, cell-based; conditions: A549, 72 h
[11] = biological target: TGF-beta receptor type-2 (Homo sapiens) (UniProt P37173); assay: Inhibition of TGFBR2 assessed as inhibition of TGFbeta induced SMAD phosphorylation at 1 uM relative to control
SK-MEL-28 = assay: Antiproliferative activity against human SK-MEL-28 harboring BRAF gene mutation/amplification at 1 uM after 72 hrs by Ambit assay in presence of 10% serum; format: functional, cell-based; conditions: SK-MEL-28, 72 h
NCI-H82 = assay: Antiproliferative activity against human NCI-H82 harboring CMYC/RB gene mutation/amplification at 1 uM after 72 hrs by Ambit assay in presence of 10% serum; format: functional, cell-based; conditions: NCI-H82, 72 h
BT-474 = assay: Antiproliferative activity against human BT474 cells harboring HER2/PI3K/p53 mutant gene at 1 uM after 72 hrs by Ambit assay in presence of 10% serum; format: functional, cell-based; conditions: BT-474, 72 h
[12] = Antiproliferative activity against human U87MG harboring PTEN gene mutation/amplification at 1 uM after 72 hrs by Ambit assay in presence of 10% serum; format: functional, U-87MG ATCC; conditions: U-87 MG
NCI-H1975 = assay: Antiproliferative activity against human NCI-H1975 harboring PI3K/EGFR/p53 gene mutation/amplification at 1 uM after 72 hrs by Ambit assay in presence of 10% serum; format: functional, cell-based; conditions: NCI-H1975, 72 h
NCI-H460 = assay: Antiproliferative activity against human NCI-H460 harboring PI3K/KRAS/LKB1 gene mutation/amplification at 1 uM after 72 hrs by Ambit assay in presence of 10% serum; format: functional, cell-based; conditions: NCI-H460, 72 h
A-375 = assay: Antiproliferative activity against human A375 cells harboring BRAF gene mutation/amplification at 1 uM after 72 hrs by Ambit assay in presence of 10% serum; format: functional, cell-based; conditions: A-375, 72 h
DU-4475 = assay: Antiproliferative activity against human DU4475 harboring BRAF/APC/RB gene mutation/amplification at 1 uM after 72 hrs by Ambit assay in presence of 10% serum; format: functional, cell-based; conditions: DU-4475, 72 h
MCF7 = assay: Antiproliferative activity against human MCF7 harboring PI3K gene mutation/amplification at 1 uM after 72 hrs by Ambit assay in presence of 10% serum; format: functional, cell-based; conditions: MCF7, 72 h
Calu-6 = assay: Antiproliferative activity against human Calu6 harboring KRAS gene mutation/amplification at 1 uM after 72 hrs by Ambit assay in presence of 10% serum; format: functional, cell-based; conditions: Calu-6, 72 h
MDA-MB-231 = assay: Antiproliferative activity against human MDA-MB-231 harboring KRAS/BRAF/p53 gene mutation/amplification at 1 uM after 72 hrs by Ambit assay in presence of 10% serum; format: functional, cell-based; conditions: MDA-MB-231, 72 h
[13] = biological target: Serine/threonine-protein kinase mTOR (Rattus norvegicus) (UniProt P42346); assay: Inhibition of HGF induced mTOR activation in rat liver assessed as inhibition of AKT phosphorylation at S473 at 30 mg/kg, ip 6 hrs prior to HGF stimulation by MSD analysis; format: organism-based; set-up: dose 30 mg/kg; scale not given: the % may be the effect or the level left
[14] = AUC in rat at 50 mg/kg, po; format: ADME, organism-based; set-up: dose 50 mg/kg, route oral; conditions: plasma
[15] = Half life in Sprague-Dawley rat at 1 mg/kg, iv; format: ADME, organism-based; set-up: dose 1 mg/kg, route intravenous; conditions: in vivo
[16] = Oral bioavailability in Sprague-Dawley rat at 2 mg/kg; format: ADME, organism-based; conditions: in vivo
[17] = Plasma protein binding in Sprague-Dawley rat at 1 mg/kg, iv and 2 mg/kg, po; format: ADME, organism-based; conditions: read-out: PPB (converted)
Rattus norvegicus [18] = assay: Inhibition of HGF induced mTOR activation in ip dosed rat liver assessed as inhibition of AKT phosphorylation at S473 administered 6 hrs prior to HGF stimulation by MSD analysis; format: functional, organism-based
[19] = Clearance in Sprague-Dawley rat at 1 mg/kg, iv and 2 mg/kg, po; format: ADME, organism-based; conditions: in vivo
[20] = Volume of distribution at steady state in Sprague-Dawley rat at 1 mg/kg, iv and 2 mg/kg, po; format: ADME, organism-based; conditions: in vivo, read-out: Vdss
Rattus norvegicus [21] = assay: AUC in rat at 2 mg/kg, po; format: ADME, organism-based, Plasma; set-up: dose 2 mg/kg, route oral; conditions: in vivo
[22] = biological target: Serine/threonine-protein kinase mTOR (Rattus norvegicus) (UniProt P42346); assay: Inhibition of HGF induced mTOR activation in rat liver assessed as inhibition of S6RP phosphorylation at 100 mg/kg, ip 6 hrs prior to HGF stimulation by MSD analysis; format: organism-based; set-up: dose 100 mg/kg
Rattus norvegicus [23] = assay: AUC in Sprague-Dawley rat at 1 mg/kg, iv; format: ADME, organism-based, Plasma; set-up: dose 1 mg/kg, route intravenous; conditions: in vivo
[24] = Solubility of compound in 0.01 N HCL; format: physicochemical; conditions: 0.01 N HCl; read-out: solubility
[25] = biological target: Serine/threonine-protein kinase mTOR (Rattus norvegicus) (UniProt P42346); assay: Inhibition of HGF induced mTOR activation in rat liver assessed as inhibition of AKT phosphorylation at S473 at 100 mg/kg, ip 6 hrs prior to HGF stimulation by MSD analysis; format: organism-based; set-up: dose 100 mg/kg

Chain of Phosphatidylinositol 4,5-bisphosphate 3-kinase catalytic subunit gamma isoform (P48736 whole entry, canonical isoform): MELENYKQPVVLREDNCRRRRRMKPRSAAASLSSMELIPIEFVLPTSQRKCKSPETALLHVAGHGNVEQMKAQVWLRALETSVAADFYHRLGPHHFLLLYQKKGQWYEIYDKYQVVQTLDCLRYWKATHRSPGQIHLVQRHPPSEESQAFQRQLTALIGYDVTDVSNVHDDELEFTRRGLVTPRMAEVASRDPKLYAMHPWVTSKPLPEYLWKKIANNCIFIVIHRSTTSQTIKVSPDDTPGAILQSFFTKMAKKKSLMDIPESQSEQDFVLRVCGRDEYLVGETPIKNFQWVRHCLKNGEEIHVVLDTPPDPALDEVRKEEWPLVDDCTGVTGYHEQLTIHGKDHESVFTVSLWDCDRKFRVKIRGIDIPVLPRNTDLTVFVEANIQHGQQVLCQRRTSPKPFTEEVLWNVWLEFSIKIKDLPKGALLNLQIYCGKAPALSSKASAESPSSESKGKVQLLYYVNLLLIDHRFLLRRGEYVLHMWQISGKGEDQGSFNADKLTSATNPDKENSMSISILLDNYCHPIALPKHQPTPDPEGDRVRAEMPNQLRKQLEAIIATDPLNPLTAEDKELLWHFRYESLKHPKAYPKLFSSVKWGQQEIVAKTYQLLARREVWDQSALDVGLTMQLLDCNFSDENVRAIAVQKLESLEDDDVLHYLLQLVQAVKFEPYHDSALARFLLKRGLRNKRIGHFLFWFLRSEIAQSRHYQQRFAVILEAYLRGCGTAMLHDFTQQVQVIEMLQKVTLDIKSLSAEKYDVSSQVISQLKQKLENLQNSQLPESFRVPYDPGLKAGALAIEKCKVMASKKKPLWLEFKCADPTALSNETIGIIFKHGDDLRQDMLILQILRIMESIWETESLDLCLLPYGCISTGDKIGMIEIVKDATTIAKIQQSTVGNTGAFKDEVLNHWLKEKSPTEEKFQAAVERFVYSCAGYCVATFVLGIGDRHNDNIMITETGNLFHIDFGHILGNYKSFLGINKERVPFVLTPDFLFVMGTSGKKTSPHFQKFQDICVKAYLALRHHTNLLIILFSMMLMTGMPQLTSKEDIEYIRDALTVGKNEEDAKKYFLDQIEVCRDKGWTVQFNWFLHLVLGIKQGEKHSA
Chain of Phosphatidylinositol 4,5-bisphosphate 3-kinase catalytic subunit alpha isoform (P42336 whole entry, canonical isoform): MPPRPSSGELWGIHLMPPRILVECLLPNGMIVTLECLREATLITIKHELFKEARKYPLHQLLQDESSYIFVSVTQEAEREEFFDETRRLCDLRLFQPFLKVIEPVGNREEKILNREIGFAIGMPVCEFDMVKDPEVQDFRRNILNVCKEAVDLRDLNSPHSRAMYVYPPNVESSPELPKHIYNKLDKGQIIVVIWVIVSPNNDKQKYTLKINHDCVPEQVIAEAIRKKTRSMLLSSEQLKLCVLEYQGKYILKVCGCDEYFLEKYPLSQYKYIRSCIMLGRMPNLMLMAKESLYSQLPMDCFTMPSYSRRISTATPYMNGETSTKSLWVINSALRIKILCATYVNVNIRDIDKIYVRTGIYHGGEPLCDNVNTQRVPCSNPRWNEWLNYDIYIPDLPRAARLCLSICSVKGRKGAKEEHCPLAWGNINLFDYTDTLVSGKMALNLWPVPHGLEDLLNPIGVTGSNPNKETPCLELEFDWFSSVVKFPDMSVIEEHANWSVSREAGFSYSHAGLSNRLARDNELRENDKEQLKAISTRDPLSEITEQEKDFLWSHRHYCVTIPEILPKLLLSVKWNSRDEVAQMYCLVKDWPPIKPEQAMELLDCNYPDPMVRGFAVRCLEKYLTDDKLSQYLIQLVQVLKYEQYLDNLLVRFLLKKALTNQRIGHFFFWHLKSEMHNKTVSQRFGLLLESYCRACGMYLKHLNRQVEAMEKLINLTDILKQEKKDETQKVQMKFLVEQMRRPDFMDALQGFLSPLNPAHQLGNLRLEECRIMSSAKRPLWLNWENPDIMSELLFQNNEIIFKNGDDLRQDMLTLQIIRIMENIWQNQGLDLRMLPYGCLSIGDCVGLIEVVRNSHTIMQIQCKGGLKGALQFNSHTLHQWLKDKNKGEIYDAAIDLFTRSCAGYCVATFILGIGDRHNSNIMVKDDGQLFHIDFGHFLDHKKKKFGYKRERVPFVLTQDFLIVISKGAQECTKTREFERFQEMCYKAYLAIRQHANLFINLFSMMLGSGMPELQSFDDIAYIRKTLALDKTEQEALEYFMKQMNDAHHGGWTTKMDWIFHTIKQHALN
Chain of Phosphatidylinositol 4,5-bisphosphate 3-kinase catalytic subunit beta isoform (P42338 whole entry, canonical isoform): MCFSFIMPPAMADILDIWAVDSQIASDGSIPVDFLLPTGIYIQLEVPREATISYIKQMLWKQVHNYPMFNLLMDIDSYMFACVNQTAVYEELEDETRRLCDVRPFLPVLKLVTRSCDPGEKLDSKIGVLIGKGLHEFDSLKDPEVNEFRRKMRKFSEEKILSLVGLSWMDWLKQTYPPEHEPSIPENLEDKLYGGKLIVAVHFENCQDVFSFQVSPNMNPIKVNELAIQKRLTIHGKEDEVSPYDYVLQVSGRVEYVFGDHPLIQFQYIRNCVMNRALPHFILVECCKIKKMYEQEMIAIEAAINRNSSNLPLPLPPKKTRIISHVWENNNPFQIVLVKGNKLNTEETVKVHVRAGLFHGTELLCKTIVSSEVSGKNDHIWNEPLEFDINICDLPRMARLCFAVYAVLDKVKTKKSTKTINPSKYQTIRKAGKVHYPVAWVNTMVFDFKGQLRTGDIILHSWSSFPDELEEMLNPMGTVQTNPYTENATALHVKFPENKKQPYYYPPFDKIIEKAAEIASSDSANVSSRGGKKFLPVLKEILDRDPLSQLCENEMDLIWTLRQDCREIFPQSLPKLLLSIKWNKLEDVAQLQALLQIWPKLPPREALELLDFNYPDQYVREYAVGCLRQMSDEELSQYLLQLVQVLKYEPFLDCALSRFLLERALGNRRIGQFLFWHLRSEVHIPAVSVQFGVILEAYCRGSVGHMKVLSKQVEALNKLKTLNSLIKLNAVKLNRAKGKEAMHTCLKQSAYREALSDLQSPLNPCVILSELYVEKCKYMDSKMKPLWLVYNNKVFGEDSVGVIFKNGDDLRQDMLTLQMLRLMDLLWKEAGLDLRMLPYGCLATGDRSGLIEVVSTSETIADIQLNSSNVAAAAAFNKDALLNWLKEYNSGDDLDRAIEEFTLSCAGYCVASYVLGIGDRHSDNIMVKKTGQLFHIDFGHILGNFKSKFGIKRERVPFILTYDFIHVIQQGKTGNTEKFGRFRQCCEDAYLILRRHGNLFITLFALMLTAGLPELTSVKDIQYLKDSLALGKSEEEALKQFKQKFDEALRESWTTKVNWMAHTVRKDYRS
Chain of TGF-beta receptor type-2 (Homo sapiens) (P37173 whole entry): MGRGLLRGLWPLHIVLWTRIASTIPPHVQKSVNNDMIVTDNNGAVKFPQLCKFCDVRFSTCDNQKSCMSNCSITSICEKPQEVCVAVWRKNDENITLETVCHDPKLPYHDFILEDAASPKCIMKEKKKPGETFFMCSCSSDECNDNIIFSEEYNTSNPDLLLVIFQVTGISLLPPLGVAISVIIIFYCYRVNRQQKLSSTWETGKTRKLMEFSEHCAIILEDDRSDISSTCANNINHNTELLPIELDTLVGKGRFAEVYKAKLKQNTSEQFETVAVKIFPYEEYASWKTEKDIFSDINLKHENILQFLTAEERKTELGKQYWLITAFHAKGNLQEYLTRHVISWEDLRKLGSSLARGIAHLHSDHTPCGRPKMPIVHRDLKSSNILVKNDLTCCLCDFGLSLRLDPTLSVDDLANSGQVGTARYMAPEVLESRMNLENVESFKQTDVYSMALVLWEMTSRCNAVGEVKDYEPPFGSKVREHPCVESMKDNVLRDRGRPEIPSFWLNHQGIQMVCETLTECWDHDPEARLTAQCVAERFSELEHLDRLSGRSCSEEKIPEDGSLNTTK

- IC50 [1]: 1300 nM
- half-life [2]: 42 min
- IC50 [3]: 7700 nM
- IC50 [4]: 15400 nM
- AUC (Rattus norvegicus [5]): 1020 nM
- IC50 [6]: 6200 nM
- IC50 [7]: 5800 nM
- IC50 [8]: 60 nM
- IC50 [9]: 82 nM
Compound: Cc1nc(NCCC#N)nc(-n2c(Nc3cc[nH]n3)nc3ccccc32)n1

- inhibition [10]: inactive
- IC50 (HCC1954): 220 nM
- IC50 (MDA-MB-468): 690 nM
- IC50 (NCI-H2009): 420 nM
- IC50 (COLO-829): 340 nM
- IC50 (A549): 430 nM
- inhibition [11]: 17%
- IC50 (SK-MEL-28): 470 nM
- IC50 (NCI-H82): 430 nM
- IC50 (BT-474): 200 nM
- IC50 (NCI-H1975): 600 nM
- IC50 (NCI-H460): 460 nM
- IC50 (A-375): 380 nM
- IC50 (MCF7): 540 nM
- IC50 (Calu-6): 590 nM
- IC50 (MDA-MB-231): 270 nM
Compound: Cc1nc(NCC#N)nc(-n2c(Nc3cc[nH]n3)nc3ccccc32)n1
- IC50 (UACC-893): 140 nM
- IC50 (CAL-51): 320 nM
- IC50 [12]: 350 nM
- IC50 (DU-4475): 530 nM

- IC50 [1]: 600 nM
- Activity [13]: 71%
- AUC [14]: 2.03 µM·h
- half-life [15]: 33.6 min
- IC50 [3]: 2200 nM
- bioavailability [16]: 20.7%
- IC50 [4]: 4500 nM
- fraction unbound [17]: 0.008
- clearance [19]: 15.5 mL/min/kg
- IC50 [6]: 3200 nM
- Vd [20]: 0.76 L/kg
- IC50 [7]: 890 nM
- AUC (Rattus norvegicus [21]): 1490 nM
- inhibition [22]: 78%
- IC50 [8]: 81 nM
- AUC (Rattus norvegicus [23]): 3.6 µM
- IC50 [9]: 100 nM
- solubility [24]: 156 µg/mL (≈ 485 µM)
- inhibition [25]: 83%
Compound: CNc1nc(C)nc(-n2c(Nc3cc[nH]n3)nc3ccccc32)n1
- inhibition (Rattus norvegicus [18]): Dose-dependent effect
